Patent US20240174641A1, “HETEROCYCLIC COMPOUNDS CAPABLE OF […]” (Boehringer Ingelheim International GmbH, priority 2022, published 2024)

Columns and labels:
dog STING (dSTING) = experiment: Dog differential scanning fluorimetry (DSF) assay, thermal shift of dog STING protein; assay type: binding; settings: DSF (dDSF); 100 μM compound, 3 μM dog STING protein; Tm with ligand minus Tm of protein alone
Text: The protein used for the biophysical experiments was a recombinant dog STING protein comprising its cytosolic cGAMP binding ectodomain. A codon optimized DNA sequence (for expression in Escherichia coli) encoding amino acid residues 149 to 375 of dog STING was synthesized by GeneArt (Regensburg, Germany) and inserted into a pET17b E. coli expression vector. The protein construct encodes an N-terminal 8×His-tag followed by tobacco etch virus protease (TEV) cleavage site and the above STING gene sequence. The resulting protein sequence for the used dog STING protein (SEQ ID No. 1) is listed below:
For expression of the above recombinant dog STING, the construct was transformed into E. coli BL21 DE3 strain and grown in shake flasks in LB-medium at 15° C. Expression was induced by addition of isopropyl β-D-1-thiogalactopyranoside to a final concentration of 1 mM and cultures shaken overnight. Cell pellets were centrifuged and stored at −70° C. until further use. Protein was purified by cell thawing in lysis buffer (20 mM TRIS-HCl, pH 8, 500 mM NaCl, 1 mM DTT, 0.5 mg/ml lysozyme, Complete Protease Inhibitor (Roche) and DNase (Roche)), followed by metal affinity purification using Ni-NTA resins and elution buffer consisting of 20 mM TRIS-HCl, pH 8, 500 mM NaCl, 1 mM DTT, 300 mM imidazole. Cleavage of the His-Tag using TEV-protease took place during dialysis in size exclusion buffer (20 mM TRIS-HCl, pH 8, 100 mM NaCl, 1 mM DTT) over night. To further purify the target protein a reverse Nickel affinity column was used and the flow through was applied to a size exclusion chromatography. The peak fraction was collected and concentrated to 5 mg/mL.
Dye fluorescence is quenched in aqueous environment and increases upon association of the dye with the hydrophobic parts of the unfolding protein. […] The inflection point of the curve represents the “melting” temperature of the protein (Tm) which is calculated numerically using the Boltzmann equation.
The thermal stability of the dog STING protein was measured in assay buffer containing 20 mM Tris, 150 mM NaCl at pH7.5. The assay uses 384-Well qPCR Plates (Catalog #781358, BRAND), Microseal® ‘B’ Adhesive Seals for PCR Plates (Catalog #MSB-1001, BIO-RAD) and was run on a CFX384 Real-Time System (Bio-Rad). A DMSO stock solution of SYPRO orange (SIGMA 55692-500UL) was prepared. Compound stock solutions (10 mM in DMSO) were diluted 1:2 in DMSO to an intermediate compound concentration of 5 mM and then further diluted 1:40 in assay buffer resulting in a compound concentration of 125 μM and 2.5% DMSO. Fluorescent dye stock solution (5000×SYPRO Orange) was then mixed with target protein and buffer to a concentration of 15 μM Protein and 25×SYPRO Orange. 2 μl of this protein-dye-mixture was added to 8 μl compound solution. Final volume was 10 μL. 3-6 well positions were used as negative control (protein with 2% DMSO). The plates were prepared for duplicate measurement and centrifuged for 2 min at 1000 g. In the measurement, 160 cycles of 0.5° C. were used (temperature ramp 15 s/cycle, 15° C. to 95° C.).
Final Assay concentrations for compound characterization were 100 μM compound, 3 μM target protein, 5×SYPRO Orange, and 2% DMSO in 10 μl. All dispensing steps were performed using a HamiltonStar pipetting robot (Hamilton).
Dissociation curves were processed in Bio-Rad CFX Manager. Peak type was set to “negative”. Compound codes for screen were assigned in the plate layout.
Two replicates of TM measurements were averaged, and the standard deviation was calculated. In cases of SD>1.5° C. the measurement was repeated.
The melting point (Tm) obtained for STING protein alone was subtracted from T obtained for protein incubated with ligand to generate ΔTm values.

STING = STING (Canis lupus familiaris, UniProt A0A8I3MH52); experiment: Dog whole blood (dWB) assay, IFNb secretion by ELISA; assay type: cell-based; settings: canine Interferon-beta (IFNb) ELISA, 4 h incubation at 37° C.
Sequence of STING (A0A8I3MH52 1-374): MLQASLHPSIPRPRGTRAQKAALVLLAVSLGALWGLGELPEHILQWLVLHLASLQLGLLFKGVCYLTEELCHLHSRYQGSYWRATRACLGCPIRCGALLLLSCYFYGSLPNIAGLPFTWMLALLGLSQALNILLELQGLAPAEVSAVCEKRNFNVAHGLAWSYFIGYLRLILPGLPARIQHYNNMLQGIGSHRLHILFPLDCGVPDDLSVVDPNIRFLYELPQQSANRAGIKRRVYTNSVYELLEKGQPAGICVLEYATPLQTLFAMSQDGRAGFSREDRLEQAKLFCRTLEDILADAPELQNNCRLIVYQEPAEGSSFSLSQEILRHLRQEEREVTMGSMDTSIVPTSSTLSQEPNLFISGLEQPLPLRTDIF
Procedure: For the detection of STING activation in physiological environment dog whole blood (dWB) was stimulated by the cyclic dinucleotide cGAMP or a test compound. Pathway activity was monitored by measuring the IFNb production.
Compounds were delivered as 10 mM DMSO solution, diluted and transferred by using an Echo acoustic dispenser to the 384 well assay plate (Greiner #781182), pre-filled with 10 μl 1×HBSS in each well (10×HBSS (+Ca/+Mg), #14065-049, Gibco). Typically, 8 concentrations were used with the highest concentration at 10 μM in the final assay volume followed by approximately 1:4 dilution steps. DMSO concentration was set to 0.1% in the final assay volume. The 384-well assay plate contained 20 test compounds and DMSO in control and cGAMP standard wells. The dog whole blood was collected as Na-Citrate blood (e.g., 3.8% in Monovettes from Sarstedt) and kept at 4° C. overnight until use in the assay. 80 μl of the whole blood samples were transferred to each well of the 384-well assay plates filled with compound/1×HBSS. Blood plates were kept at room temperature for 60 minutes and continuous shaking with 450 rpm, covered with the lid, but not sealed. A 10×cGAMP assay solution was diluted from a 2 mM stock solution in 1×HBSS immediately before use at room temperature. 10 μl of the 10×cGAMP/HBSS were added to the high control wells, whereas HBSS only was added to all compound and low control wells. After covering assay plates with the lid, blood plates were kept for a 4 h incubation at 37° C. in the incubator, without shaking. For the detection of IFNb in dog plasma the ELISA Kit for Canine Interferon Beta (Biotrend #SEA222Ca) was used. Whole blood assay plates were centrifuged at 1000 g for 10 minutes at 8° C. […] was transferred with a 96 well pipetting robotics from the 384 well whole blood plate to the corresponding 96 well ELISA plate, pre-filled with 60 μl assay diluent in each well. Plates were sealed with microplate seals and kept at 4° C. overnight again. ELISA plates were brought to room temperature, followed by a 1 h incubation at 37° C. in the incubator. Detection Reagent A working solution was prepared by diluting Detection Reagent A 1:100 in Assay Reagent A. Liquid was then removed from the 96 well ELISA plate to add 100 μL Detection Reagent A working solution to each well. ELISA plates were covered with the plate sealer and incubated for 1 hour at 37° C. in the incubator. The 1× Wash buffer was prepared by diluting the 30× Wash Buffer Concentrate in H2O. Detection Reagent B working solution was prepared by diluting Detection Reagent B 1:100 in Assay Reagent B. The ELISA plates were washed three times with 350 μl wash buffer and afterwards inverted and blotted against absorbent paper to remove any liquid. 100 μL of Detection Reagent B working solution was added to each well of the ELISA plates, which are then covered with the plate sealer and incubated for 30 minutes at 37° C. in the incubator. After incubation the ELISA assay plates were washed five times with 350 μl wash buffer and were again inverted and blotted against absorbent paper to remove any remaining liquid. 90 μL of TMB Substrate was added to each well of the ELISA plates, which were then covered with the plate sealer and incubated for 15 minutes at 37° C. in the incubator. The reaction was stopped by adding 50 μL stop solution and absorbance was measured at 450 nm immediately.
For data evaluation and calculation, % control calculation of each well was based on the mean of high (cGAMP stimulated control) and mean of low (unstimulated control) controls by using the following standard 4 parameter logistic regression formula:
[y=(a−d)/(1+(x/c)^b)+d] • a=low value, • d=high value, • x=conc M, • c=EC50 M, • b=slope. Dog Liver Microsome (dLM) Assay

Structure (SMILES)	Delta TM (dog STING (dSTING)) [°C]	EC50 (STING) [nM]
Cc1cc(F)cc2c(-c3cccc4nn(C)c(F)c34)nn(-c3ccc(N4C[C@@H]5[C@H](C4)[C@H]5C(=O)O)nc3)c12 [Example 10, (1R,5S,6R)-3-(5-{3′,5-Difluoro-2′,7-dimethyl-1H,2′H-[3,4′-biindazol]-1-yl}pyridin-2-yl)-3-azabicyclo[3.1.0]hexane-6-carboxylic acid]	33.1	350
Cc1cc(F)cc2c(-c3c(F)cc(F)c4nn(C)cc34)nn(-c3ccc(N4C[C@@H]5[C@H](C4)[C@H]5C(=O)O)nc3)c12 [Example 15, (1R,5S,6R)-3-(5-{5,5″,7″-Trifluoro-2″,7-dimethyl-1H,2″H-[3,4″-biindazol]-1-yl}pyridin-2-yl)-3-azabicyclo[3.1.0]hexane-6-carboxylic acid]	36.8	1170
Cc1cccc2c(-c3c(F)cc(F)c4nn(C)cc34)nn(-c3ccc(N4CC[C@@H](CC(=O)O)C4)nc3)c12 [Example 45, 2-[(3S)-1-(5-{5″,7″-difluoro-2″,7-dimethyl-1H,2″H-[3,4″-biindazol]-1-yl}pyridin-2-yl)pyrrolidin-3-yl]acetic acid]	33.0	601
Cc1cc(F)cc2c(-c3cccc4nn(C)c(F)c34)nn(-c3ccc(N4CCC(C(=O)O)CC4)nc3)c12 [Example 58, 1-(5-{3″,5-difluoro-2″,7-dimethyl-1H,2″H-[3,4″-biindazol]-1-yl}pyridin-2-yl)piperidine-4-carboxylic acid]	33.0	207
CC(=O)N1CCN(c2ccc(-n3nc(-c4cccc5nn(C)c(F)c45)c4ccc(F)c(C)c43)cn2)CC1 [Example 61, 1-[4-(5-{3″,6-difluoro-2″,7-dimethyl-1H,2″H-[3,4″-biindazol]-1-yl}pyridin-2-yl)piperazin-1-yl]ethan-1-one]	30.8	245
Cc1cccc2c(-c3c(F)ccc4nn(C)cc34)nn(-c3ccc(N4C[C@@H]5C[C@H]4C[C@H]5C(=O)O)nc3)c12 [Example 27-1, (1S,4R,5R)-2-(5-{5″-fluoro-2″,7-dimethyl-1H,2″H-[3,4″-biindazol]-1-yl}pyridin-2-yl)-2-azabicyclo[2.2.1]heptane-5-carboxylic acid]	36.9	211
Cc1cccc2c(-c3ccc(F)c4nn(C)c(F)c34)nn(-c3ccc(N4CC[C@@H](CC(=O)O)C4)nc3)c12 [Example 54, 2-[(3S)-1-(5-{3″,7″-difluoro-2″,7-dimethyl-1H,2″H-[3,4″-biindazol]-1-yl}pyridin-2-yl)pyrrolidin-3-yl]acetic acid]	30.0	261
CC(=O)N1C[C@H]2C[C@@H]1CN2c1ccc(-n2nc(-c3cc(F)cc4nn(C)cc34)c3cccc(C)c32)cn1 [Example 42, 1-[(1R,4R)-5-(5-{6″-fluoro-2″,7-dimethyl-1H,2″H-[3,4″-biindazol]-1-yl}pyridin-2-yl)-2,5-diazabicyclo[2.2.1]heptan-2-yl]ethan-1-one]	15.8	–
Cc1cccc2c(-c3cc(F)cc4nn(C)cc34)nn(-c3ccc(N4CCC(C(=O)O)CC4)nc3)c12 [Example 33, 1-(5-{6″-fluoro-2″,7-dimethyl-1H,2″H-[3,4″-biindazol]-1-yl}pyridin-2-yl)piperidine-4-carboxylic acid]	22.5	–
Cc1cccc2c(-c3cc(F)cc4nn(C)cc34)nn(-c3ccc(N4CC[C@H](CC(=O)O)C4)nc3)c12 [Example 36, 2-[(3R)-1-(5-{6″-fluoro-2″,7-dimethyl-1H,2″H-[3,4″-biindazol]-1-yl}pyridin-2-yl)pyrrolidin-3-yl]acetic acid]	24.0	–
CC(=O)N1CC2CCC1CN2c1ccc(-n2nc(-c3cc(F)cc4nn(C)cc34)c3cccc(C)c32)cn1 (centres unmarked) [Example 43, 1-[5-(5-{6″-fluoro-2″,7-dimethyl-1H,2″H-[3,4″-biindazol]-1-yl}pyridin-2-yl)-2,5-diazabicyclo[2.2.2]octan-2-yl]ethan-1-one]	16.0	–
Cc1cccc2c(-c3cc(F)cc4nn(C)cc34)nn(-c3ccc(N4CC[C@@H](CC(=O)O)C4)nc3)c12 [Example 35, 2-[(3S)-1-(5-{6″-fluoro-2″,7-dimethyl-1H,2″H-[3,4″-biindazol]-1-yl}pyridin-2-yl)pyrrolidin-3-yl]acetic acid]	22.5	–
Cc1cccc2c(-c3ccc(F)c4nn(C)c(F)c34)nn(-c3ccc(N4C[C@@H]5C[C@H]4C[C@H]5C(=O)O)nc3)c12 (single isomer, unassigned) [Example 56-1]	33.0	–
